Data as given in the NIST ThermoML archive (doi:10.1021/je7001368).
Numbers after ± are expanded uncertainties.

Experiment: mn = molality of the nth substance listed, in mol/kg
Conditions: 101 kPa, Liquid

O=C([O-])CC(O)(CC(=O)[O-])C(=O)[O-].[K+].[K+].[K+] [potassium citrate] + O
Conditions	mass density [kg/m3]	speed of sound [m/s]
288.15 K, m1 = 0.0185	1002.99 ± 0.4	1470.8 ± 1.4
288.15 K, m1 = 0.0304	1005.44 ± 0.4	1473.4 ± 1.5
288.15 K, m1 = 0.031	1005.55 ± 0.4	1473.5 ± 1.5
288.15 K, m1 = 0.0558	1010.5 ± 0.42	1478.6 ± 1.5
288.15 K, m1 = 0.0899	1017.35 ± 0.45	1485.7 ± 1.5
288.15 K, m1 = 0.1258	1024.33 ± 0.48	1493.8 ± 1.5
288.15 K, m1 = 0.1931	1037.25 ± 0.54	1506.5 ± 1.5
288.15 K, m1 = 0.2653	1050.77 ± 0.61	1519.9 ± 1.6
288.15 K, m1 = 0.3412	1064.51 ± 0.69	1534.3 ± 1.6
288.15 K, m1 = 0.4565	1084.71 ± 0.83	1556.7 ± 1.7
288.15 K, m1 = 0.5796	1105.19 ± 0.98	1578.4 ± 1.8
288.15 K, m1 = 0.7446	1131.73 ± 1.2	1608.1 ± 1.9
293.15 K, m1 = 0.0185	1002.05 ± 0.4	1486.7 ± 1.5
293.15 K, m1 = 0.0304	1004.5 ± 0.4	1489.1 ± 1.5
293.15 K, m1 = 0.031	1004.61 ± 0.4	1489.3 ± 1.5
293.15 K, m1 = 0.0558	1009.51 ± 0.42	1494.3 ± 1.5
293.15 K, m1 = 0.0899	1016.3 ± 0.45	1501.1 ± 1.5
293.15 K, m1 = 0.1258	1023.23 ± 0.47	1509 ± 1.5
293.15 K, m1 = 0.1931	1036.06 ± 0.54	1521.2 ± 1.5
293.15 K, m1 = 0.2653	1049.48 ± 0.61	1534.2 ± 1.6
293.15 K, m1 = 0.3412	1063.13 ± 0.69	1548.1 ± 1.6
293.15 K, m1 = 0.4565	1083.21 ± 0.82	1569.7 ± 1.7
293.15 K, m1 = 0.5796	1103.58 ± 0.97	1590.6 ± 1.8
293.15 K, m1 = 0.7446	1129.91 ± 1.2	1619.4 ± 1.9
298.15 K, m1 = 0.0185	1000.87 ± 0.39	1500.8 ± 1.5
298.15 K, m1 = 0.0304	1003.29 ± 0.39	1503.2 ± 1.5
298.15 K, m1 = 0.031	1003.4 ± 0.39	1503.3 ± 1.5
298.15 K, m1 = 0.0558	1008.27 ± 0.41	1508.1 ± 1.5
298.15 K, m1 = 0.0899	1015.02 ± 0.44	1514.7 ± 1.5
298.15 K, m1 = 0.1258	1021.9 ± 0.47	1522.4 ± 1.5
298.15 K, m1 = 0.1931	1034.64 ± 0.53	1534.3 ± 1.5
298.15 K, m1 = 0.2653	1047.99 ± 0.6	1546.8 ± 1.6
298.15 K, m1 = 0.3412	1061.56 ± 0.68	1560.2 ± 1.6
298.15 K, m1 = 0.4565	1081.54 ± 0.81	1581.2 ± 1.7
298.15 K, m1 = 0.5796	1101.81 ± 0.96	1601.3 ± 1.8
298.15 K, m1 = 0.7446	1128.11 ± 1.2	1629.2 ± 1.9
303.15 K, m1 = 0.0185	999.449 ± 0.39	1513 ± 1.5
303.15 K, m1 = 0.0304	1001.86 ± 0.39	1515.4 ± 1.5
303.15 K, m1 = 0.031	1001.97 ± 0.39	1515.5 ± 1.5
303.15 K, m1 = 0.0558	1006.81 ± 0.41	1520.2 ± 1.5
303.15 K, m1 = 0.0899	1013.52 ± 0.43	1526.6 ± 1.5
303.15 K, m1 = 0.1258	1020.35 ± 0.46	1534.1 ± 1.5
303.15 K, m1 = 0.1931	1033.03 ± 0.53	1545.6 ± 1.6
303.15 K, m1 = 0.2653	1046.31 ± 0.6	1557.7 ± 1.6
303.15 K, m1 = 0.3412	1059.82 ± 0.68	1570.7 ± 1.6
303.15 K, m1 = 0.4565	1079.71 ± 0.81	1591.1 ± 1.7
303.15 K, m1 = 0.5796	1099.9 ± 0.95	1610.6 ± 1.8
303.15 K, m1 = 0.7446	1126.1 ± 1.2	1637.7 ± 1.9
308.15 K, m1 = 0.0185	997.814 ± 0.39	1523.6 ± 1.5
308.15 K, m1 = 0.0304	1000.21 ± 0.38	1525.9 ± 1.5
308.15 K, m1 = 0.031	1000.32 ± 0.38	1526.1 ± 1.5
308.15 K, m1 = 0.0558	1005.14 ± 0.4	1530.6 ± 1.5
308.15 K, m1 = 0.0899	1011.81 ± 0.43	1536.8 ± 1.5
308.15 K, m1 = 0.1258	1018.62 ± 0.46	1544.2 ± 1.5
308.15 K, m1 = 0.1931	1031.24 ± 0.52	1555.3 ± 1.6
308.15 K, m1 = 0.2653	1044.46 ± 0.59	1567.1 ± 1.6
308.15 K, m1 = 0.3412	1057.91 ± 0.67	1579.7 ± 1.6
308.15 K, m1 = 0.4565	1077.72 ± 0.8	1599.7 ± 1.7
308.15 K, m1 = 0.5796	1097.85 ± 0.94	1618.5 ± 1.8
308.15 K, m1 = 0.7446	1123.97 ± 1.2	1644.9 ± 1.9
313.15 K, m1 = 0.0185	995.982 ± 0.4	1532.7 ± 1.5
313.15 K, m1 = 0.0304	998.37 ± 0.39	1534.9 ± 1.5
313.15 K, m1 = 0.031	998.478 ± 0.39	1535 ± 1.5
313.15 K, m1 = 0.0558	1003.28 ± 0.39	1539.5 ± 1.5
313.15 K, m1 = 0.0899	1009.92 ± 0.42	1545.5 ± 1.5
313.15 K, m1 = 0.1258	1016.7 ± 0.45	1552.8 ± 1.5
313.15 K, m1 = 0.1931	1029.28 ± 0.51	1563.6 ± 1.6
313.15 K, m1 = 0.2653	1042.44 ± 0.58	1575 ± 1.6
313.15 K, m1 = 0.3412	1055.86 ± 0.66	1587.3 ± 1.6
313.15 K, m1 = 0.4565	1075.6 ± 0.79	1606.9 ± 1.7
313.15 K, m1 = 0.5796	1095.67 ± 0.94	1625.1 ± 1.8
313.15 K, m1 = 0.7446	1121.72 ± 1.1	1650.8 ± 1.9
